Data: ChEMBL document CHEMBL1159301, “Isolation and absolute configuration of ent-Halimane diterpenoids from Hymenaea courbaril from the Suriname rain forest” (J Nat Prod, 2002)
Activity calls are given as the source filed them. The calls are words filed in the database; no cut-off is given here.

Key:
[1] = tested on: A2780; assay: Cytotoxicity against human A2780 cells after 48 hrs by alamar blue assay; format: functional, cell-based
[2] = tested on: Saccharomyces cerevisiae; assay: DNA damaging activity against yeast 1138 mutant assessed as drug level required to produce 12 mm zone of inhibition; format: functional

Compound | Activity [1] | Activity [2] | IC50 ([1]; A2780, 48 h) | IC12 [2]
C=C[C@](C)(O)CC[C@]1(C)C2=CC(=O)C[C@](C)(C(=O)O)[C@H]2CC[C@H]1C | inactive | inactive |  | 
C=C[C@](C)(O)CC[C@]1(C)C2=CCC[C@](C)(C(=O)O)[C@H]2CC[C@H]1C |  |  | > 40 µg/mL | 925 µg/mL
C=C[C@](C)(O)CC[C@]1(C)C2=CCC[C@](C)(C(=O)N[C@@H](C(=O)OC)c3ccccc3)[C@H]2CC[C@H]1C | inactive | inactive |  | 
C=C[C@](C)(O)CC[C@]1(C)C2=CCC[C@](C)(C(=O)N[C@H](C(=O)OC)c3ccccc3)[C@H]2CC[C@H]1C | inactive | inactive |  | 
